What was measured:
[1] = biological target: T1, aromatase activity in JAR choriocarcinoma placental cells (Homo sapiens, UniProt P11511); assay: Tritiated water-release assay in JAR cells; format: cell-based
T1 construct: JAR choriocarcinoma placental cells (which produce aromatase expression from promoter I.1 mediated by protein kinase C); host or cells: JAR
T1 sequence (P11511 1-503): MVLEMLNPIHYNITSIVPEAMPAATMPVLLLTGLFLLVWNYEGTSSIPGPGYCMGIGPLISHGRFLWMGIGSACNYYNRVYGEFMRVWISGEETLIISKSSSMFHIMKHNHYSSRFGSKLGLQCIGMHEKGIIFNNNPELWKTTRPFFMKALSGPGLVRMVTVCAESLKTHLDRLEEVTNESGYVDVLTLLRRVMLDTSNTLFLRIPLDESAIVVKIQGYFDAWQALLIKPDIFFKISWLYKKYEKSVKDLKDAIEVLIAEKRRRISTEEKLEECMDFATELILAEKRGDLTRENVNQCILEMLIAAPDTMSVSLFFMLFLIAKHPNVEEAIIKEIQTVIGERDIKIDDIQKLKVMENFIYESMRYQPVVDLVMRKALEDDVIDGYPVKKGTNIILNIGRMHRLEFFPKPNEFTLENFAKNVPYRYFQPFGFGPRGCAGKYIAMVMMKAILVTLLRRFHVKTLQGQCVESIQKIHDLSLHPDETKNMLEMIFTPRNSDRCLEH
Protocol: (§1) Cell Culture. AR and SK-BR-3 cells were obtained from ATCC (Rockville, Md.). SK-BR-3 cells were maintained in phenol red-free custom media (MEM, Earle's salts, 1.5× amino acids, 2× non-essential amino acids, L-glutamine, 1.5× vitamins, Gibco BRL) supplemented with 10% fetal bovine serum (FBS), 2 mM L-glutamine and 20 mg/L gentamycin. JAR cells were maintained in RPMI 1640 medium with 2 mM L-glutamine adjusted to contain 1.5 g/L sodium bicarbonate, 4.5 g/L glucose, 10 mM HEPES, and 1.0 mM sodium pyruvate, 90%; FBS, 10%. Fetal bovine serum was heat inactivated for 30 min in a 56° C. water bath before use. Cell cultures were grown at 37° C., in a humidified atmosphere of 5% CO2 in a Hereaus CO2 incubator. For all experiments, cells were plated in 6 well plates and grown to subconfluency. Before treatment, the media was changed to a defined one containing DMEM/F12 media (Sigma) with 1.0 mg/mL human albumin (OSU Hospital Pharmacy), 5.0 mg/L human transferin and 5.0 mg/L bovine insulin.
(§2) Tritiated water-release assay in JAR and SK-BR-3 cell lines. Measurement of aromatase enzyme activity was based on the tritium water release assay. Cells in six well plates were treated with 0.1% DMSO (control), and inhibitors at the indicated concentrations. After 24 hours, the cells were incubated 3 hours (SK-BR-3 cells) or 1 hour (JAR cells) with fresh media along with 100 nM [1β-^3H]-androst-4-ene-3,17-dione (1 μCi). Subsequently, the reaction mixture was removed, and proteins were precipitated using 10% trichloroacetic acid at 42° C. for 20 min. After a brief centrifugation, the media was extracted three times with an equal amount of chloroform to remove remaining substrate and further treated with dextran-treated charcoal. After centrifugation, a 250-μl aliquot containing the product was counted in 5 ml of liquid scintillation mixture. Results were corrected for blanks and for the cell contents of culture flasks, and results were expressed as picomoles of ^3H2O formed per hour incubation time per million live cells (pmol/h/10^6 cells). To determine the amount of cells in each flask, the cells were lysed and analyzed using the diphenylamine DNA assay adapted to a 96-well plate. IC50 sigmoidal dose-response data were analyzed with Microsoft Excel and the Graphpad Prism (Version 3.0) program.
(§3) Diphenylamine DNA Assay To determine the amount of viable cells in each flask, the cells were lysed with 0.5N NaOH aqueous solution and analyzed using the diphenylamine DNA assay adapted to a 96-well plate. DNA standards (0-30 μg) were prepared using double-stranded DNA reconstituted in PBS and added in triplicates directly to the wells. A uniform cell suspension was prepared from the 6 well plate in 300 μl 0.5N NaOH aqueous solution, and 60 μl of the unknown samples were added in triplicates to separate wells. A solution of 0.16% acetaldehyde in water was prepared and mixed at a 1:5 ratio with perchloric acid (20% vol/vol). This solution (60 μl) was added to each well along with 100 μl of a 4% diphenylamine solution in glacial acetic acid. The plates were incubated at 37° C. for 24 hours. After centrifugation, 100 μl supernatant of each well was transferred to a new 96 well plate, and the OD595 was measured using a microplater reader. The DNA concentration was determined by extrapolation to the standard curve and the amount of cells/well was calculated using the equation: 1 cell≈7 pg DNA.

[2] = system: aromatase activity in SK-BR-3 breast cancer cells; assay: Tritiated water-release assay in SK-BR-3 cells (additional compounds); format: cell-based, human
Protocol: as §1, with “JAR cells were maintained in RPMI 1640 medium with 2 mM L-glutamine adjusted to contain 1.5 g/L sodium bicarbonate, 4.5 g/L glucose, 10 mM HEPES, and 1.0 mM sodium pyruvate, 90%; FBS, 10%.” left out
as §2
as §3, with “A solution of 0.16% acetaldehyde in water was prepared and mixed at a 1:5 ratio with perchloric acid (20% vol/vol).” left out

[3] = system: aromatase activity in SK-BR-3 breast cancer cells; assay: Aromatase tritiated water-release assay in SK-BR-3 cell lines (first compound set); format: cell-based, human; details: SK-BR-3 cells, 24 h treatment; five concentrations, each in triplicate; read-out: IC50 (μM), suppression of aromatase activity in SK-BR-3 breast cancer cells
Protocol: Aromatase Tritiated Water-Release Assay in SK-BR-3 Cell Lines. SK-BR-3 cells were obtained from ATCC (Rockville, Md.). Cell cultures were maintained in phenol red-free custom media (MEM, Earle's salts, 1.5× amino acids, 2× nonessential amino acids, L-glutamine, 1.5× vitamins, Gibco BRL) supplemented with 10% fetal bovine serum (FBS), 2 mM L-glutamine, and 20 mg/L gentamycin. Measurement of aromatase enzyme activity was based on the tritium water release assay. 24 Cells in 100 mm Petri dish were treated with 0.1% DMSO (control), and inhibitors at the indicated concentrations. After 24 h, the media was changed and the cells were incubated with 100 nM [1â-3H]-androst-4-ene-3,17-dione ([…]) for 3 h. Subsequently, the reaction mixture was removed, and proteins were precipitated using 10% trichloroacetic acid at 42° C. for 20 min. After a brief centrifugation, the media was extracted three times with an equal amount of chloroform to extract unused substrate and further dextran-treated charcoal. After centrifugation, a 250-μL aliquot containing the product was counted in 5 mL of liquid scintillation mixture. Results were corrected for blanks and for the cell contents of culture flasks, and results were expressed as picomoles of 3H2O formed per hour incubation time per million live cells (pmol/h/10^6 cells). To determine the amount of cells in each flask, the cells were trypsinized and analyzed using the diphenylamine DNA assay adapted to a 96-well plate. (Natarajan N.; Shambaugh, G. E., 3rd; Elseth K. M.; Haines G. K.; Radosevich J. A. Adaptation of the diphenylamine (DPA) assay to a 96-well plate tissue culture format and comparison with the MTT assay. Biotechniques 1994, 17, 166-171; incorporated herein by reference). IC50 sigmoidal dose-response data were analyzed with Microsoft Excel and the Graphpad Prism (Version 3.0) program.

[4] = system: PGE2 production in MDA-MB-231 cells; assay: Enzyme immunoassay of PGE2 in MDA-MB-231 cells (COX-2 inhibitory activity); format: cell-based, human; details: 25 μM, 24 h (FIG. 4)
Protocol: Enzyme Immunoassay of PGE2 in MDA-MB-231 Cells. MDA-MB-231 cells were obtained from ATCC (Rockville, Md.). Cell cultures were maintained in phenol red-free custom media (MEM, Earle's salts, 1.5× amino acids, 2× nonessential amino acids, L-glutamine, 1.5× vitamins, Gibco BRL) supplemented with 10% fetal bovine serum (FBS), 2 mM L-glutamine and 20 mg/L gentamycin. To study PGE2 synthesis in cell culture media, experiments were performed in […] Petri dishes. An aliquot of MDA-MB-231 cells (15×10^4 cells) were added to each dish and then incubated overnight to allow the cells to adhere to the dish. After that, cells were serum starved in defined media for 24 h. This step was followed by replacement of media with fresh media containing either vehicle (DMSO) or the indicated concentration of agents. After 24 h incubation at 37° C. the media were collected and the amount of PGE2 was determined by ELISA (Cayman Chemical) according to the protocol provided by the manufacturer. PGE2 concentration was normalized to total protein. Total proteins were extracted from adhered cells by 30 min treatment with 0.5 M NaOH at room temperature and shaking. Protein concentrations in these extracts were determined using a protein assay method (Bio-Rad Laboratories, Inc., Hercules, Calif.).

Compound	inhibition at 15 µM ([1]; 24 h, 15 μM (FIG. 11), read-out: decrease of aromatase activity in JAR cells) [%]	melting point [°C]	IC50 [3] [µM]	IC50 ([2]; dose-response (FIG. 13), read-out: IC50 (μM), suppression of aromatase activity in SK-BR-3 breast cancer cells) [µM]	aromatase suppression activity in JAR cells (in words) ([1]; 15 μM)	decrease of aromatase activity in SK-BR-3 cells (in words) ([2]; 2.5 μM)	PGE2 production (COX-2 inhibitory activity) [4]
CS(=O)(=O)Nc1ccc([N+](=O)[O-])cc1OCc1cccc2ccccc12 [Compound 38b, N-[2-(α-naphthylmethoxy) 4-nitrophenyl]methanesulfonamide]	< 50	193 to 195			inhibited aromatase activity in both JAR cells and SK-BR-3 cells	inhibited aromatase activity in both JAR cells and SK-BR-3 cells	
CS(=O)(=O)Nc1ccc([N+](=O)[O-])cc1Oc1ccccc1 [Nimesulide, N-(2-phenoxy-4-nitrophenyl)-methanesulfonamide, reference compound]				27			
CC1CCCCC1Oc1cc([N+](=O)[O-])ccc1N(C)S(C)(=O)=O (stereo not drawn) [Compound 20, N-Methyl-N-(2-methylcyclohexyloxy-4-nitrophenyl)methanesulfonamide]			0.96				did not show any inhibitory activity

Continued, in another order:

inhibition at 15 µM ([1]; 24 h, 15 μM (FIG. 11), read-out: decrease of aromatase activity in JAR cells) [%]	melting point [°C]	IC50 [3] [µM]	IC50 ([2]; dose-response (FIG. 13), read-out: IC50 (μM), suppression of aromatase activity in SK-BR-3 breast cancer cells) [µM]	Compound	aromatase suppression activity in JAR cells (in words) ([1]; 15 μM)	decrease of aromatase activity in SK-BR-3 cells (in words) ([2]; 2.5 μM)	PGE2 production (COX-2 inhibitory activity) [4]
	102 to 104	0.44		CN(c1ccc([N+](=O)[O-])cc1OC1CCCC1)S(C)(=O)=O [Compound 21, N-Methyl-N-(2-cyclopentyloxy-4-nitrophenyl)methanesulfonamide]			did not show any inhibitory activity
	139 to 140	0.87		CS(=O)(=O)Nc1ccc([N+](=O)[O-])cc1OC1CCCC1 [Compound 12, N-(2-Cyclopentyloxy-4-nitrophenyl)methanesulfonamide]			significantly decrease in PGE2 production
		1.21		CC1CCCCC1Oc1cc([N+](=O)[O-])ccc1NS(C)(=O)=O (stereo not drawn) [Compound 11, N-(2-Methylcyclohexyloxy-4-nitrophenyl)methanesulfonamide]			did not show any COX-2 inhibitory activity
